In one data set the target is Integrin alpha-V/beta-3 (Homo sapiens, UniProt P05106+P06756). Nature of the data set: Inhibitory concentration against alphaV-beta3 integrin. Format: protein-complex assay.
The species named for a further data set is Homo sapiens. As to the kind of experiment: Inhibition of aggregation of ADP-stimulated human platelets. It is filed as functional.
The target in data set [1] is Integrin alpha-IIb/beta-3 (Homo sapiens, UniProt P05106+P08514). As to the kind of experiment: Inhibition of binding of fibrinogen to purified human GPIIb-IIIa in ELISA. It is filed as protein-complex assay. In general terms: In an ELISA, binding on a coated surface is turned into a signal by an enzyme label.
Chain of Integrin alpha-IIb/beta-3 (P05106 27-788 limits assumed): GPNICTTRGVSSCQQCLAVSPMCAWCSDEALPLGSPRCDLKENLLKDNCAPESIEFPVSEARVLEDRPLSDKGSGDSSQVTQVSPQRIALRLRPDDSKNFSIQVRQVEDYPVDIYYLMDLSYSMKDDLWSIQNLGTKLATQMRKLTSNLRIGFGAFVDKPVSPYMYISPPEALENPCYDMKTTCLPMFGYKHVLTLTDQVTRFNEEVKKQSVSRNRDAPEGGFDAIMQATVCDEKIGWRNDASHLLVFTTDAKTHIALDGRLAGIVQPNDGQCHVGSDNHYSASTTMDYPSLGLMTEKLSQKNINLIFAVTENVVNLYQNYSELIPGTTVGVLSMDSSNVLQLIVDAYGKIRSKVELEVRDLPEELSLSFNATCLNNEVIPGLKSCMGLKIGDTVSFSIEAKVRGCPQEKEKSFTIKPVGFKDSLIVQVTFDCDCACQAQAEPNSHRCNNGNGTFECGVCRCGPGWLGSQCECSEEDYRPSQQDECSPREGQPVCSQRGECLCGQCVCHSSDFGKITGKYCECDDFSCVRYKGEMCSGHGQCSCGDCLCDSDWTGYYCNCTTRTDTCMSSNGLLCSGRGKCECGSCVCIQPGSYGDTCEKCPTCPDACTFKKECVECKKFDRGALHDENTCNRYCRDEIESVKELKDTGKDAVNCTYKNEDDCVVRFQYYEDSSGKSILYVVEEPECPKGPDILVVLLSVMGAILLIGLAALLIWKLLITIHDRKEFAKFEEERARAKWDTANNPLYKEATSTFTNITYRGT
Chain of Integrin alpha-IIb/beta-3 (P08514 32-887 limits assumed): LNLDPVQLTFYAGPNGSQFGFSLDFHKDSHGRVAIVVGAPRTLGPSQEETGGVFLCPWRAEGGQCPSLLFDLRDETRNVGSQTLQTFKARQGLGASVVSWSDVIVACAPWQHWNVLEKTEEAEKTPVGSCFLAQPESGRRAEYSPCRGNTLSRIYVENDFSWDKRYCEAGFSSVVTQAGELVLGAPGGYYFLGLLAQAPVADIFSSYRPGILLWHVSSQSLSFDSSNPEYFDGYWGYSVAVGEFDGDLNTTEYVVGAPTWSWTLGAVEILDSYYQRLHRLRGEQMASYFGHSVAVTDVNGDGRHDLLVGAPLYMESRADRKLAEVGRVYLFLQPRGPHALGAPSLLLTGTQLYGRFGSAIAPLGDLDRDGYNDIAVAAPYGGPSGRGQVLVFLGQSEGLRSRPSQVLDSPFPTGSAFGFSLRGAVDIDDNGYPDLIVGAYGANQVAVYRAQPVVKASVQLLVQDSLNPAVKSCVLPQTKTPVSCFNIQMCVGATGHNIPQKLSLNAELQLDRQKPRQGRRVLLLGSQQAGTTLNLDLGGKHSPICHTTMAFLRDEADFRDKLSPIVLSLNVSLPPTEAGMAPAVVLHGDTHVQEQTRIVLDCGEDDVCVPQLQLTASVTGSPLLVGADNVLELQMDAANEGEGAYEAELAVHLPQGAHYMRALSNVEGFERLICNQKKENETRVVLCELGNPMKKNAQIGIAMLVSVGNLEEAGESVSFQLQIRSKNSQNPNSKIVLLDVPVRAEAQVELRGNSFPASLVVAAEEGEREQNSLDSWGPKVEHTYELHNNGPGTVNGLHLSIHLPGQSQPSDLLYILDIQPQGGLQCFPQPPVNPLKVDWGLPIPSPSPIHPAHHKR
Chain of Integrin alpha-IIb/beta-3 (P08514 891-1039 limits assumed): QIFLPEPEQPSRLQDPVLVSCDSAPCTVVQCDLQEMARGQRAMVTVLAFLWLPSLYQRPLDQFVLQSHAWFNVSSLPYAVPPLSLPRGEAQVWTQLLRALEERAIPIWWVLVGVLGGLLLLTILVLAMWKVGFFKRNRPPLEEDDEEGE
Data set [2] in a line: Oral bioavailability of compound in Sprague Dawley rats. The settings on record: rat, in vivo. Format: ADME, organism-based.

Chain of Integrin alpha-V/beta-3 (P05106 27-788 limits assumed): as the sequence (P05106 27-788 limits assumed) above
Chain of Integrin alpha-V/beta-3 (P06756 31-889 limits assumed): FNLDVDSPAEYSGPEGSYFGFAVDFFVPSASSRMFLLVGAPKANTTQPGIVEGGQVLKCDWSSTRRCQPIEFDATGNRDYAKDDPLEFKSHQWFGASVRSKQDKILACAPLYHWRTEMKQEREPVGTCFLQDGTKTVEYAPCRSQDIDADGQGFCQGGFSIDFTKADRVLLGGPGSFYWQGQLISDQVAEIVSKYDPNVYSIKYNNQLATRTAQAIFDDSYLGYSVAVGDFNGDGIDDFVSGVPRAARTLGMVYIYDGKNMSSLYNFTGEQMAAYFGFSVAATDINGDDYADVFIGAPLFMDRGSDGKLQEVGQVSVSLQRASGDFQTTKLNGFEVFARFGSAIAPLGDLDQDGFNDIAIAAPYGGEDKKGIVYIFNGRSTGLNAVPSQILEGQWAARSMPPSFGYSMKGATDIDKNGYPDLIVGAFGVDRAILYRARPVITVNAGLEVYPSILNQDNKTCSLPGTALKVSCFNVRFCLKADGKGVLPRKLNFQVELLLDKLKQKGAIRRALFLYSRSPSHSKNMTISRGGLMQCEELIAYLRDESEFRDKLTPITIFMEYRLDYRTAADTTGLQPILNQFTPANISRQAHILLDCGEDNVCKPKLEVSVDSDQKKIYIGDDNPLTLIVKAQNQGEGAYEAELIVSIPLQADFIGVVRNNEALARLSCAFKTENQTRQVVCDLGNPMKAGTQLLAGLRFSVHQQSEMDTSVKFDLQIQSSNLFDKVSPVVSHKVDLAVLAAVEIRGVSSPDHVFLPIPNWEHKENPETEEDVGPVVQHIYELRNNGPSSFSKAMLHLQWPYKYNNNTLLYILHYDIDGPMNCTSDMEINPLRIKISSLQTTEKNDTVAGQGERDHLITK
Chain of Integrin alpha-V/beta-3 (P06756 891-1048 limits assumed): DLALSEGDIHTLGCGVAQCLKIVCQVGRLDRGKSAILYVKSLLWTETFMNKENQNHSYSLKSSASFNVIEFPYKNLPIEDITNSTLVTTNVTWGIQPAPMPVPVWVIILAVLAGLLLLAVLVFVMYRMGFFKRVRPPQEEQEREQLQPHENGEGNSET

As usually defined, the IC50 is the concentration at which inhibition is half-maximal. A higher IC50 goes with weaker potency. As for `Cc1noc(C)c1S(=O)(=O)N[C@@H](CNC(=O)N1CCC2(CC1)CCN(c1ccncc1)CC2)C(=O)O`, the results for the half-inhibitory concentration (IC50) at Integrin alpha-V/beta-3 and in the data set listed under Homo sapiens were more than 100 µM and 0.039 µM, respectively.
Regarding `Cc1ccc(S(=O)(=O)N[C@@H](CCC(=O)N2CCC3(CC2)CCN(c2ccncc2)CC3)C(=O)O)cc1`, the values for the half-maximal inhibitory concentration (IC50) against Integrin alpha-V/beta-3 and in the data set filed under Homo sapiens were more than 100 µM and 0.078 µM, respectively.
In the same order, the values of `O=C(O)CCCC(=O)N1CCC2(CC1)CCN(c1ccncc1)CC2` are more than 100 µM and 5.08 µM.
For `O=C(O)COC1CCN(C(=O)N2CCC3(CC2)CCN(c2ccncc2)CC3)CC1`, the IC50 at Integrin alpha-V/beta-3 is more than 100 µM; in the data set filed under Homo sapiens, 2.65 µM; in data set [1], 0.21 µM.
In the same order, the values of `CCCCS(=O)(=O)N[C@@H](CCC(=O)N1CCC2(CC1)CCN(c1ccncc1)CC2)C(=O)O` are more than 100 µM, 0.768 µM and 0.023 µM.
The bioavailability is the share of a dose that reaches the circulation, judged against a reference dose that is usually intravenous. High values mean good availability, low ones poor availability. `Cc1noc(C)c1S(=O)(=O)N[C@@H](CCC(=O)N1CCC2(CC1)CCN(c1ccncc1)CC2)C(=O)O`: the 50% inhibitory concentration (IC50) against Integrin alpha-V/beta-3 is more than 100 µM; in the data set filed under Homo sapiens, 0.021 µM. The same molecule gave a bioavailability in data set [2] of 7.3%.
In the case of `N=C(N)c1ccc(C(=O)N2CCC3(CCN(C(=O)CCCC(=O)O)CC3)CC2)cc1`, the values for the IC50 against Integrin alpha-V/beta-3 and in the data set filed under Homo sapiens were more than 100 µM and 10.3 µM, respectively.
As to `O=C(O)CCCCC(=O)N1CCC2(CC1)CCN(c1ccncc1)CC2`, the half-maximal inhibitory concentration (IC50) on Integrin alpha-V/beta-3 was more than 100 µM; in the data set listed under Homo sapiens it was 4.54 µM.
`CCCCOC(=O)N[C@@H](CCC(=O)N1CCC2(CC1)CCN(c1ccncc1)CC2)C(=O)O`: the IC50 is more than 100 µM against Integrin alpha-V/beta-3, 0.722 µM in the data set listed under Homo sapiens and 0.004 µM in data set [1].
In the same order, the values of `N=C(N)c1ccc(C(=O)N2CCC3(CCN(C(=O)CC(=O)O)CC3)CC2)cc1` are more than 100 µM, 9.3 µM and 9.7 µM.
On to `O=C(O)CCCCCC(=O)N1CCC2(CC1)CCN(c1ccncc1)CC2`, for which the 50% inhibitory concentration (IC50) on Integrin alpha-V/beta-3 is more than 100 µM; in the data set listed under Homo sapiens, 4.55 µM; in data set [1] it was 0.27 µM.
As to `N=C(N)c1ccc(C(=O)N2CCC3(CCN(C(=O)CCC(=O)O)CC3)CC2)cc1`, the IC50 is more than 100 µM at Integrin alpha-V/beta-3 and 13.8 µM in the data set listed under Homo sapiens.
On to `O=C(O)CC(=O)N1CCC(C(=O)N2CCC3(CC2)CCN(c2ccncc2)CC3)CC1`, for which the concentration for half-maximal inhibition (IC50) was more than 100 µM at Integrin alpha-V/beta-3, 1.17 µM in the data set filed under Homo sapiens and 0.043 µM in data set [1].
In the same order, the values of `N=C(N)c1ccc(N2CCC3(CCN(CCC(=O)O)CC3)CC2)cc1` are more than 100 µM, 1.15 µM and 0.16 µM.
Consider `N=C(N)c1ccc(C(=O)N2CCC3(CCN(C(=O)CCCCC(=O)O)CC3)CC2)cc1`, for which the IC50 is more than 100 µM against Integrin alpha-V/beta-3, 18.8 µM in the data set filed under Homo sapiens and more than 100 µM in data set [1].
Regarding `O=C(O)CCCCCCC(=O)N1CCC2(CC1)CCN(c1ccncc1)CC2`, the results for the IC50 on Integrin alpha-V/beta-3 and in the data set listed under Homo sapiens were more than 100 µM and 17.8 µM, respectively.
In the same order, the values of `O=C(N[C@@H](CCC(=O)N1CCC2(CC1)CCN(c1ccncc1)CC2)C(=O)O)OCc1ccccc1` are more than 100 µM and 4.58 µM.
